From paper PMC8471001 (Biosensors, 2021)
Entries after “also recorded” stand apart in the source; their conditions may differ.

Key:
mushroom tyrosinase = assay: Spectrophotometric progress-curve assay of free tyrosinase with L-tyrosine (half-time reaction t'1/2); assay type: biochemical; settings: plot of t'1/2 versus inhibitor concentration at 0.5-3 mM L-tyrosine
Procedure: Substrate conversion was evaluated by measuring the increase in absorbance at 490 nm. The absorbance was sampled every 1 min, allowing each progression curve to be constructed in 40 min.
(§1) To evaluate the degree of inhibition (I%) of the tyrosinase activity, signal responses in the absence (I0) and the presence of an inhibitor (I1) were measured with either an electrochemical or colorimetric method. The degree of inhibition (I%) is expressed as follows: (1) I(%)=I0−I1/I0×100

[1] = test system: tyrosinase (EC 1.14.18.1, from mushroom); assay: Amperometric biosensor: tyrosinase immobilized on carbon black paste electrode, inhibition of catechol response; assay type: biochemical; settings: for type of inhibition: from shift of inhibition curve, 20 vs 200 µM catechol; for type of inhibition / IC50: immobilized tyrosinase; for inhibition range of catechol response: 20 µM catechol; for IC50: 0.1 M phosphate buffer pH 6.8, -0.15 V vs. Ag/AgCl
Procedure: The immobilization of tyrosinase onto the surface of the carbon black paste electrode (CBPE) was achieved by cross-linking with glutaraldehyde and bovine serum albumin (BSA) as reported elsewhere for several enzyme biosensors. In brief, the enzyme solution was first prepared by mixing 15 µL of Tyr (35 U/mL), 7.5 µL of BSA (1% w/v), and 7.5 µL of glutaraldehyde (0.25% w/v) on a glass slide. Then, 7.5 µL of the mixture was spread on the surface of a CBPE, and lastly, it was dried at room temperature for 1 h. Before electrochemical measurements, the enzyme electrode was placed under stirring for 10 min in PBS buffer to remove the enzyme not firmly immobilized. The electrodes were maintained at 4 °C in phosphate buffer, pH 6.8 until use.
The tyrosinase was immobilized on the surface of the carbon black paste electrode. The electrochemical measurements of o-quinone produced by the tyrosinase-based biosensor, in presence of catechol as substrate, were monitored by an amperometric measurement.
The enzyme activity assays were performed in an electrochemical cell containing 5 mL of 0.1 M phosphate buffer, pH 6.8 at 25 °C. The applied potential was fixed at −0.15 V.
To perform each amperometric measurement, the CBPE-Tyr electrode was dipped into an electrochemical cell containing 5 mL of 0.1 M phosphate buffer solution (pH 6.8) under constant magnetic stirring. The applied potential was fixed to −0.15 V versus Ag/AgCl. Once the baseline was established (10 min approximately), a defined amount of catechol solution was added to the measuring cell. […] Then, the inhibitor solutions were added consecutively each time a plateau was reached (approximately every 30 s). The addition of tyrosinase inhibitors causes an inhibition of the enzyme, consequently decreasing the amount of liberated enzymatic reaction products.
as §1
When using the amperometric biosensor, the CBPE/Tyr modified electrode was immersed into a phosphate buffer solution at pH 6.8, under stirring and a fixed potential of −0.15 V. After stabilizing the baseline current, a fixed amount of catechol (substrate) was added to reach a steady-state current (I0) before adding the inhibitor. […] The concentration of inhibitors was increased to inhibit tyrosinase activity, and the current decrease (I1) was recorded.

Row | SMILES | type of inhibition (mushroom tyrosinase) | type of inhibition [1] | inhibition range of catechol response ([1]; inhibitor 2.5 µM to 97.5 µM) | IC50 ([1]; 20 µM catechol substrate) [µM] | IC50 ([1]; 200 µM catechol substrate) [µM] | inhibition range of catechol response ([1]; inhibitor 0.01 mM to 1.57 mM) | inhibition range of catechol response ([1]; inhibitor 5 µM to 275 µM)
1 | O=c1cc(CO)occ1O [kojic acid] | competitive inhibition | competitive inhibition; also recorded: competed with catechol | 13–74% | – | – | – | –
2 | [N-]=[N+]=[N-].[Na+] [sodium azide] | – | competed with catechol | – | 1480 | 2000 | 7–64% | –
3 | O=C(O)c1ccccc1 [benzoic acid] | – | competed with catechol | – | 119 | 500 | – | 8–69%
